This note sets out measurements from US20240317721A1, “PYRAZOLYL DERIVATIVES AS INHIBITORS OF THE KRAS MUTANT PROTEIN” (NOVARTIS AG, priority 2021, published 2024).

Each structure is given as a SMILES string.

This assay addresses KRasG12C (M1-K169, biotinylated on the N-terminus) (Homo sapiens (Human), UniProt P01116, G12C). Nature of the assay: Covalent competition assay: scintillation proximity assay (SPA) quantifying covalent modification of KRASG12C. The class given is binding. Particulars: competition with radiolabeled covalent probe (Compound B/Compound A), 2 hours incubation, 10 nM KRasG12C. The method, boiled down:
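Scintillation proximity readout after streptavidin bead capture (30 min) of biotinylated KRasG12C(M1-K169):GDP, 10 nM final, which was covalently labelled over 2 h by 25 nM radio-probe plus 475 nM cold probe unless blocked by compound.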
On the technique in general: SPA uses beads or plates that emit light when radiolabelled molecules are held near them.
A word on the IC50: it is the concentration needed to halve the response being measured. For `C=CC(=O)N1CC2(CC(n3nc(N4CCN(C(=O)OC)CC4(C)C)c(-c4c(Cl)c(C)cc5[nH]ncc45)c3C)C2)C1` (single isomer, unassigned) [Example 125a, methyl 4-(1-(2-acryloyl-2-azaspiro[3.3]heptan-6-yl)-4-(5-chloro-6-methyl-1H-indazol-4-yl)-5-methyl-1H-pyrazol-3-yl)-3,3-dimethylpiperazine-1-carboxylate], the half-inhibitory concentration (IC50) is 2200 nM.
In the case of `C=CC(=O)N1CC2(CC(n3nc(N4CCC5(CN(C6COC6)C5)CC45CCC5)c(-c4c(Cl)c(C)cc5[nH]ncc45)c3C)C2)C1` (single isomer, unassigned) [Example 93b, 1-(6-(4-(5-chloro-6-methyl-1H-indazol-4-yl)-5-methyl-3-(2-(oxetan-3-yl)-2,10-diazadispiro[3.1.3^6.3^4]dodecan-10-yl)-1H-pyrazol-1-yl)-2-azaspiro[3.3]heptan-2-yl)prop-2-en-1-one] it was 12 nM.
In the case of `C=CC(=O)N1CC2(CC(n3nc(N4CC[C@@H](CN5CCC6(C5)CN(C(C)=O)C6)CC4(C)C)c(-c4c(Cl)c(Cl)cc5[nH]ncc45)c3C)C2)C1` (single isomer, unassigned) [Example 317a] it was 888 nM; in that of `C=CC(=O)N1CC2(CC(n3nc(N4CC[C@@H](CN5CC6OCCN(C)C6C5)CC4(C)C)c(-c4c(Cl)c(Cl)cc5[nH]ncc45)c3C)C2)C1` (single isomer, unassigned) [Example 259a, 1-(6-(4-(5,6-dichloro-1H-indazol-4-yl)-3-((R)-2,2-dimethyl-4-(((4aR*,7aS*)-4-methylhexahydropyrrolo[3,4-b][1,4]oxazin-6(2H)-yl)methyl)piperidin-1-yl)-5-methyl-1H-pyrazol-1-yl)-2-azaspiro[3.3]heptan-2-yl)prop-2-en-1-one], 779 nM.
In the case of `C=CC(=O)N1CC2(CC(n3nc(N4CC[C@@H](CN5CC(O)C(OC)C5)CC4(C)C)c(-c4c(Cl)c(Cl)cc5[nH]ncc45)c3C)C2)C1` (single isomer, unassigned) [Example 273a, 1-(6-(4-(5,6-dichloro-1H-indazol-4-yl)-3-((R)-4-(((3S*,4S*)-3-hydroxy-4-methoxypyrrolidin-1-yl)methyl)-2,2-dimethylpiperidin-1-yl)-5-methyl-1H-pyrazol-1-yl)-2-azaspiro[3.3]heptan-2-yl)prop-2-en-1-one] it was 1100 nM; in that of `C=CC(=O)N1CC2(CC(n3nc(N4CC[C@@H](CN5C[C@H](O)C[C@@H](F)C5)CC4(C)C)c(-c4c(Cl)c(Cl)cc5[nH]ncc45)c3C)C2)C1` (single isomer, unassigned) [Example 300b, 1-(6-(4-(5,6-dichloro-1H-indazol-4-yl)-3-((R)-4-(((3R*,5R*)-3-fluoro-5-hydroxypiperidin-1-yl)methyl)-2,2-dimethylpiperidin-1-yl)-5-methyl-1H-pyrazol-1-yl)-2-azaspiro[3.3]heptan-2-yl)prop-2-en-1-one], 13 nM; in that of `C=CC(=O)N1CC2(CC(n3nc(N4CCN(C5(C)COC5)CC45CCC5)c(-c4c(Cl)c(C)cc5[nH]ncc45)c3C)C2)C1` (single isomer, unassigned) [Example 191a, 1-(6-(4-(5-Chloro-6-methyl-1H-indazol-4-yl)-5-methyl-3-(8-(3-methyloxetan-3-yl)-5,8-diazaspiro[3.5]nonan-5-yl)-1H-pyrazol-1-yl)-2-azaspiro[3.3]heptan-2-yl)prop-2-en-1-one], over 5000 nM.
With `C=CC(=O)N1CC2(CC(n3nc(N4CCC(N5CCOCC5)CC4(C)C)c(-c4c(Cl)c(C)cc5[nH]ncc45)c3C)C2)C1` (single isomer, unassigned) [Example 35b, 1-(6-(4-(5-chloro-6-methyl-1H-indazol-4-yl)-3-(2,2-dimethyl-4-morpholinopiperidin-1-yl)-5-methyl-1H-pyrazol-1-yl)-2-azaspiro[3.3]heptan-2-yl)prop-2-en-1-one], the half-maximal inhibitory concentration (IC50) was found to be 1500 nM.
As for `C=CC(=O)N1CC2(CC(n3nc(N4CC[C@@H](CN5CCN6C(=O)N(C)CC6C5)CC4(C)C)c(-c4c(Cl)c(Cl)cc5[nH]ncc45)c3C)C2)C1` (single isomer, unassigned) [Example 263a], the IC50 is over 5000 nM.
Consider `C=CC(=O)N1CC2(CC(n3nc(N4CC[C@@H](CN5CCOCC5)CC4(C)C)c(-c4c(Cl)c(Cl)cc5[nH]ncc45)c3C)C2)C1` (single isomer, unassigned) [Example 213a], for which the half-inhibitory concentration (IC50) was determined as 3500 nM.
In the case of `C=CC(=O)N1CC2(CC(n3nc(N4CCN(C5CCOCC5)CC45CCC5)c(-c4c(Cl)c(Cl)cc5[nH]ncc45)c3C)C2)C1` (single isomer, unassigned) [Example 145b, 1-(6-(4-(5,6-dichloro-1H-indazol-4-yl)-5-methyl-3-(8-(tetrahydro-2H-pyran-4-yl)-5,8-diazaspiro[3.5]nonan-5-yl)-1H-pyrazol-1-yl)-2-azaspiro[3.3]heptan-2-yl)prop-2-en-1-one] it was 12 nM; in that of `C=CC(=O)N1CC2(CC(n3nc(N4CC[C@@H](CN5CCOCC56COC6)CC4(C)C)c(-c4c(C)c(Cl)cc5[nH]ncc45)c3C)C2)C1` (single isomer, unassigned) [Example 302b], 10 nM; in that of `C=CC(=O)N1CC2(CC(n3nc(N4CC[C@@H](CN5CCN(CCO)C(=O)C5)CC4(C)C)c(-c4c(Cl)c(Cl)cc5[nH]ncc45)c3C)C2)C1` (single isomer, unassigned) [Example 251b], 9 nM.
Consider `C=CC(=O)N1CC2(CC(n3nc(N4CC[C@@H](CN5C[C@H](O)C[C@@H](F)C5)CC4(C)C)c(-c4c(Cl)c(Cl)cc5[nH]ncc45)c3C)C2)C1` (single isomer, unassigned) [Example 300a, 1-(6-(4-(5,6-dichloro-1H-indazol-4-yl)-3-((R)-4-(((3R*,5R*)-3-fluoro-5-hydroxypiperidin-1-yl)methyl)-2,2-dimethylpiperidin-1-yl)-5-methyl-1H-pyrazol-1-yl)-2-azaspiro[3.3]heptan-2-yl)prop-2-en-1-one], for which the half-inhibitory concentration (IC50) was over 5000 nM.
Consider `CC#CC(=O)N1CC2(CC(n3nc(N4CCN(C5COC5)CC45CCC5)c(-c4c(Cl)c(C)cc5[nH]ncc45)c3C)C2)C1` (single isomer, unassigned) [Example 78b, 1-(6-(4-(5-chloro-6-methyl-1H-indazol-4-yl)-5-methyl-3-(8-(oxetan-3-yl)-5,8-diazaspiro[3.5]nonan-5-yl)-1H-pyrazol-1-yl)-2-azaspiro[3.3]heptan-2-yl)but-2-yn-1-one], for which the IC50 was over 5000 nM.
`C=CC(=O)N1CC2(CC(n3nc(N4CCC(N(C)C5COC5)CC4(C)C)c(-c4c(Cl)c(Cl)cc5[nH]ncc45)c3C)C2)C1` (single isomer, unassigned) [Example 50b, 1-(6-(4-(5,6-dichloro-1H-indazol-4-yl)-3-(2,2-dimethyl-4-(methyl(oxetan-3-yl)amino)piperidin-1-yl)-5-methyl-1H-pyrazol-1-yl)-2-azaspiro[3.3]heptan-2-yl)prop-2-en-1-one]: the IC50 was 5 nM.
In the case of `C=CC(=O)N1CC2(CC(n3nc(N4CC[C@H](CN5CCOCC5)CC4(C)C)c(-c4c(Cl)c(Cl)cc5[nH]ncc45)c3C)C2)C1` (single isomer, unassigned) [Example 214a] it was 290 nM.
In the case of `C=CC(=O)N1CC2(CC(n3nc(N4CCC(O)CC4(C)C)c(-c4c(Cl)c(C)cc5[nH]ncc45)c3C)C2)C1` (single isomer, unassigned) [Example 29a, 1-(6-(4-(5-chloro-6-methyl-1H-indazol-4-yl)-3-(4-hydroxy-2,2-dimethylpiperidin-1-yl)-5-methyl-1H-pyrazol-1-yl)-2-azaspiro[3.3]heptan-2-yl)prop-2-en-1-one] it was over 5000 nM; in that of `C=CC(=O)N1CC2(CC(n3nc(N4CC[C@@H](CN5CCCN(C(C)=O)CC5)CC4(C)C)c(-c4c(Cl)c(Cl)cc5[nH]ncc45)c3C)C2)C1` (single isomer, unassigned) [Example 315a], 2000 nM.
In the case of `C=CC(=O)N1CC2(CC(n3nc(N4[C@H](C)CN(C(C)=O)C[C@@H]4C)c(-c4c(Cl)c(C)cc5[nH]ncc45)c3C)C2)C1` (single isomer, unassigned) [Example 13b] it was 2100 nM; in that of `C=CC(=O)N1CC2(CC(n3nc(N4CC[C@@H](CN5CCN(C6COC6)C[C@@H]5CO)CC4(C)C)c(-c4c(Cl)c(Cl)cc5[nH]ncc45)c3C)C2)C1` (single isomer, unassigned) [Example 290b], under 5 nM; in that of `C=CC(=O)N1CC2(CC(n3nc(N4CCN(CCOC)CC45CCC5)c(-c4c(Cl)c(Cl)cc5[nH]ncc45)c3C)C2)C1` (single isomer, unassigned) [Example 76b, 1-(6-(4-(5,6-dichloro-1H-indazol-4-yl)-3-(8-(2-methoxyethyl)-5,8-diazaspiro[3.5]nonan-5-yl)-5-methyl-1H-pyrazol-1-yl)-2-azaspiro[3.3]heptan-2-yl)prop-2-en-1-one], 10 nM.
In the case of `C=CC(=O)N1CC2(CC(n3nc(N4CC[C@@H](CN5C[C@H](O)C[C@H]5COC)CC4(C)C)c(-c4c(Cl)c(Cl)cc5[nH]ncc45)c3C)C2)C1` (single isomer, unassigned) [Example 286b], the half-inhibitory concentration (IC50) amounted to 7 nM.
In the case of `C=CC(=O)N1CC2(CC(n3nc(N4CCN(C(=O)C(F)F)CC4(C)C)c(-c4c(Cl)c(C)cc5[nH]ncc45)c3C)C2)C1` (single isomer, unassigned) [Example 128a, 1-(6-(4-(5-chloro-6-methyl-1H-indazol-4-yl)-3-(4-(2,2-difluoroacetyl)-2,2-dimethylpiperazin-1-yl)-5-methyl-1H-pyrazol-1-yl)-2-azaspiro[3.3]heptan-2-yl)prop-2-en-1-one] it was over 50000 nM.
On to `C=CC(=O)N1CC2(CC(n3nc(N4CCC(=O)CC45CCC5)c(-c4c(Cl)c(C)cc5[nH]ncc45)c3C)C2)C1` [Example 47, 5-(1-(2-acryloyl-2-azaspiro[3.3]heptan-6-yl)-4-(5-chloro-6-methyl-1H-indazol-4-yl)-5-methyl-1H-pyrazol-3-yl)-5-azaspiro[3.5]nonan-8-one], for which the IC50 was over 5000 nM.
